In patent publication US4904669A, “Thiazolo/4,5-c/quinolines as major tranquilizers” (EGIS Gyogyszergyar, priority 1985, dated 1990):

Legend:
[1] = tested on: conditioned reflex (CR) / unconditioned reflex (UR); assay: Screening test, learning and retention during one session conditioning; assay type: in vivo, rats
Method: I was elaborated for studing learning and retention of rats during one session conditioning.
During conditioning rats are trained to jump onto the top of glass cylinder by the electric foot-shock (110 V). The escape reaction (unconditioned reflex, UR) is paired with a bell as conditioned stimulus. The criterion of learning is that conditioned reflex (CR) should be elicited 10 times with 10 s intervals without reinforcement. Retention of CR is taken positive when 24 h following the experiment CR can be elicited. In these experiments animals are distributed into 4 categories on the basis of their learning ability.

[2] = tested on: conditioned avoidance reflex (CAR); assay: Shuttle-box, acquisition of two-way conditioned avoidance reflex (CAR); assay type: in vivo
Method: The acquisition of a two-way conditioned avoidance reflex (CAR) was analyzed in the shuttle-box during 5 consecutive days.
The instrument was constructed by the Research Institute for Electrical Industry (Hungary). It consists of six boxes, each is separated inside by a barrier with a small gate in the middle. […] They were given 100 trials per day. One trial consisted of 15 s intertrial interval, followed by 15 s CS. The last 5 s of CS overlapped the […]. At each learning session the number of CAR and intersignal reactions (IR) was automatically counted and evaluated by multiway analysis of variance (ANOVA).

[3] = tested on: Benzodiazepine (BZD) receptor; assay: Benzodiazepine (BZD) receptor binding, displacement of 3H-diazepam; conditions: crude cortical membrane, 1 hr at 0° C., pH 6.8; control drug
Method: 10. For the Studies of Benzodiazepine (BZD) Receptor Binding crude cortical membrane preparation was used. 2/ μM ^3 H-diazepam was incubated with the membrane for 1 hr at 0° C. in TRIS-citrate buffer, pH 6.8. Specific binding was determined in the presence of 10/ μM diazepam. In displacement studies chlordiazepoxid was used as control drug.

pain reactions = assay: Hot plate test; assay type: in vivo, rats; conditions: Rattus norvegicus, 56° C. plate, 1 h after administration
Method: The method of Woolfe and McDonald (1944) modified by Porszasz and Herr (1950) was used. The effect of each dose of the drugs was checked on a group of 10 rats. The experiments were performed on metal plates maintained at 56° C. The latency time of pain reactions was determined prior to and 1 h after the administration of the test compound. It was regarded as 100% effect if the reaction time was prolonged by more than 2.5 times the control value.

[4] = Acute toxicity (Litchfield and Wilcoxon); conditions: rat, in vivo, deaths within 48 h
writhing = assay: Writhing test (peritoneal), acetic acid; assay type: in vivo; conditions: Mus musculus, mice, acetic acid i.p.
Method: The method originally described by […] (1956) for rats modified by Witkin et al. (1961) and Koster and Anderson (1959), respectively, for mice was applied. Each dose was administered to a group of ten mice and after 20 min. 60 mg/kg of 0.6% acetic acid solution was injected i.p. As a result of chemical irritation of the peritoneum a characteristic writhing can be observed in 90% of control animals. Ten animals treated with compounds under test were kept under observation for 20 min. following i.p. injection of acid. The analgetic effect of individual doses was expressed in per cent: [formula] The denominator was taken as 90% on the basis of preliminary control examination and the […] literature.

For CNC1=Nc2ccc(Cl)cc2C(c2ccccc2)=[N+]([O-])C1 [Chlordiazepoxide], the “inhibition of development of conditioned reflex” value ([1]; 10 mg/kg) was “does not influence”, the “number of negative responses (f)” value ([2]; 10 mg/kg, in words) was “increased” and the “acquisition of conditioned reflex” value ([2]; 10 and 5 mg/kg) was “unchanged”. The “intersignal reactions (IR)” value ([2]; 10 and 5 mg/kg, in words) was “unchanged”, the “intersignal reactions (IR)” value ([2]; s.c., 5 mg/kg, day 1) was 10.8 and the “negative responses (-f)” value ([2]; s.c., 5 mg/kg, day 1) was 11.8. The “positive responses (F), acquisition of conditioned reflex” value (from here on “positive responses (F), acquisition”) ([2]; s.c., 5 mg/kg, day 1) was 23.1, the “intersignal reactions (IR)” value ([2]; s.c., 5 mg/kg, day 2) was 14.0 and the “negative responses (-f)” value ([2]; s.c., 5 mg/kg, day 2) was 9.1. The “positive responses (F), acquisition” value ([2]; s.c., 5 mg/kg, day 2) was 38.7, the “intersignal reactions (IR)” value ([2]; s.c., 5 mg/kg, day 3) was 8.9 and the “negative responses (-f)” value ([2]; s.c., 5 mg/kg, day 3) was 10.2. For the same molecule, the “positive responses (F), acquisition” value ([2]; s.c., 5 mg/kg, day 3) was 35.6, the “intersignal reactions (IR)” value ([2]; s.c., 5 mg/kg, day 4) was 6.7 and the “negative responses (-f)” value ([2]; s.c., 5 mg/kg, day 4) was 14.9. For the same molecule, the “positive responses (F), acquisition” value ([2]; s.c., 5 mg/kg, day 4) was 41.1, the “intersignal reactions (IR)” value ([2]; s.c., 5 mg/kg, day 5) was 4.2 and the “negative responses (-f)” value ([2]; s.c., 5 mg/kg, day 5) was 13.0. The “positive responses (F), acquisition” value ([2]; s.c., 5 mg/kg, day 5) was 50.8, the “intersignal reactions (IR)” value ([2]; s.c., 10 mg/kg, day 1) was 10.8 and the “negative responses (-f)” value ([2]; s.c., 10 mg/kg, day 1) was 32.7. For the same molecule, the “positive responses (F), acquisition” value ([2]; s.c., 10 mg/kg, day 1) was 19.9, the “intersignal reactions (IR)” value ([2]; s.c., 10 mg/kg, day 2) was 14.7 and the “negative responses (-f)” value ([2]; s.c., 10 mg/kg, day 2) was 22.8. The “positive responses (F), acquisition” value ([2]; s.c., 10 mg/kg, day 2) was 37.9, the “intersignal reactions (IR)” value ([2]; s.c., 10 mg/kg, day 3) was 8.1 and the “negative responses (-f)” value ([2]; s.c., 10 mg/kg, day 3) was 31.8. The “positive responses (F), acquisition” value ([2]; s.c., 10 mg/kg, day 3) was 33.7, the “intersignal reactions (IR)” value ([2]; s.c., 10 mg/kg, day 4) was 6.3 and the “negative responses (-f)” value ([2]; s.c., 10 mg/kg, day 4) was 36.5. For the same molecule, the “positive responses (F), acquisition” value ([2]; s.c., 10 mg/kg, day 4) was 35.6, the “intersignal reactions (IR)” value ([2]; s.c., 10 mg/kg, day 5) was 6.1 and the “negative responses (-f)” value ([2]; s.c., 10 mg/kg, day 5) was 40.8. The “positive responses (F), acquisition” value ([2]; s.c., 10 mg/kg, day 5) was 41.2, the “intersignal reactions (IR)” value ([2]; s.c., 25 mg/kg, day 1) was 6.8 and the “negative responses (-f)” value ([2]; s.c., 25 mg/kg, day 1) was 74.0. For the same molecule, the “positive responses (F), acquisition” value ([2]; s.c., 25 mg/kg, day 1) was 9.7, the “intersignal reactions (IR)” value ([2]; s.c., 25 mg/kg, day 2) was 7.3 and the “negative responses (-f)” value ([2]; s.c., 25 mg/kg, day 2) was 67.5. For the same molecule, the “positive responses (F), acquisition” value ([2]; s.c., 25 mg/kg, day 2) was 12.2, the “intersignal reactions (IR)” value ([2]; s.c., 25 mg/kg, day 3) was 6.2 and the “negative responses (-f)” value ([2]; s.c., 25 mg/kg, day 3) was 67.0. The “positive responses (F), acquisition” value ([2]; s.c., 25 mg/kg, day 3) was 17.9, the “intersignal reactions (IR)” value ([2]; s.c., 25 mg/kg, day 4) was 8.2 and the “negative responses (-f)” value ([2]; s.c., 25 mg/kg, day 4) was 65.6. For the same molecule, the “positive responses (F), acquisition” value ([2]; s.c., 25 mg/kg, day 4) was 20.0, the “intersignal reactions (IR)” value ([2]; s.c., 25 mg/kg, day 5) was 6.0 and the “negative responses (-f)” value ([2]; s.c., 25 mg/kg, day 5) was 59.8. For the same molecule, the “positive responses (F), acquisition” value ([2]; s.c., 25 mg/kg, day 5) was 21.4 and the “displacement of 3H-diazepam on the receptor” value [3] was “displaced ^3 H-diazepam on the receptor in concentration dependent manner”.

For Cl.c1ccc2c(c1)ncc1ncsc12 [Thiazolo[4,5-c]quinoline-hydrochloride, thiazolo[4,5-c]quinoline-hydrochloride], the ED50 (pain reactions; po) was 60 mg/kg, the ED50 (pain reactions; sc) was 7.5 mg/kg and the “inhibition of development of conditioned reflex” value ([1]; 10 mg/kg) was “strong inhibition”. For the same molecule, the “inhibition of development of conditioned reflex” value ([1]; 25 mg/kg) was “complete inhibition”, the LD50 at 48 h ([4]; iv) was 55 mg/kg and the LD50 at 48 h ([4]; po, starved 16 h) was 350 mg/kg. It also gave an LD50 at 48 h ([4]; sc) of 260 mg/kg, an ED50 (writhing; po) of 82 mg/kg and an ED50 (writhing; sc) of 32 mg/kg.

With O=C(CCCN1CCC(O)(c2ccc(Cl)cc2)CC1)c1ccc(F)cc1 [haloperidol, reference compound] the “inhibition of developing conditioned reflex” value ([1]; 0.025 mg/kg) was “strong inhibition”.

In the case of c1ccc2c(c1)ncc1ncsc12 [Thiazolo[4,5-c]quinoline-ethanesulfonate, thiazolo[4,5-c]quinoline-ethanesulfonate], the ED50 (pain reactions; po) is reported as 72 mg/kg, the ED50 (pain reactions; sc) is reported as 8 mg/kg and the “intersignal reactions (IR)” value ([2]; s.c., 10 mg/kg, day 1) is reported as 6.5. For the same molecule, the “negative responses (-f)” value ([2]; s.c., 10 mg/kg, day 1) was 17.2, the “positive responses (F), acquisition” value ([2]; s.c., 10 mg/kg, day 1) was 23.5 and the “intersignal reactions (IR)” value ([2]; s.c., 10 mg/kg, day 2) was 8.8. For the same molecule, the “negative responses (-f)” value ([2]; s.c., 10 mg/kg, day 2) was 7.1, the “positive responses (F), acquisition” value ([2]; s.c., 10 mg/kg, day 2) was 44.2 and the “intersignal reactions (IR)” value ([2]; s.c., 10 mg/kg, day 3) was 5.5. For the same molecule, the “negative responses (-f)” value ([2]; s.c., 10 mg/kg, day 3) was 2.4, the “positive responses (F), acquisition” value ([2]; s.c., 10 mg/kg, day 3) was 51.6 and the “intersignal reactions (IR)” value ([2]; s.c., 10 mg/kg, day 4) was 8.2. The “negative responses (-f)” value ([2]; s.c., 10 mg/kg, day 4) was 1.2, the “positive responses (F), acquisition” value ([2]; s.c., 10 mg/kg, day 4) was 66.8 and the “intersignal reactions (IR)” value ([2]; s.c., 10 mg/kg, day 5) was 6.3. For the same molecule, the “negative responses (-f)” value ([2]; s.c., 10 mg/kg, day 5) was 6.2, the “positive responses (F), acquisition” value ([2]; s.c., 10 mg/kg, day 5) was 65.1 and the “intersignal reactions (IR)” value ([2]; s.c., 25 mg/kg, day 1) was 11.1. The “negative responses (-f)” value ([2]; s.c., 25 mg/kg, day 1) was 70.3, the “positive responses (F), acquisition” value ([2]; s.c., 25 mg/kg, day 1) was 8.1 and the “intersignal reactions (IR)” value ([2]; s.c., 25 mg/kg, day 2) was 8.8. The “negative responses (-f)” value ([2]; s.c., 25 mg/kg, day 2) was 41.8, the “positive responses (F), acquisition” value ([2]; s.c., 25 mg/kg, day 2) was 25.3 and the “intersignal reactions (IR)” value ([2]; s.c., 25 mg/kg, day 3) was 7.0. The “negative responses (-f)” value ([2]; s.c., 25 mg/kg, day 3) was 40.4, the “positive responses (F), acquisition” value ([2]; s.c., 25 mg/kg, day 3) was 23.3 and the “intersignal reactions (IR)” value ([2]; s.c., 25 mg/kg, day 4) was 10.3. The “negative responses (-f)” value ([2]; s.c., 25 mg/kg, day 4) was 46.3, the “positive responses (F), acquisition” value ([2]; s.c., 25 mg/kg, day 4) was 30.8 and the “intersignal reactions (IR)” value ([2]; s.c., 25 mg/kg, day 5) was 4.0. For the same molecule, the “negative responses (-f)” value ([2]; s.c., 25 mg/kg, day 5) was 61.3, the “positive responses (F), acquisition” value ([2]; s.c., 25 mg/kg, day 5) was 15.5 and the “intersignal reactions (IR)” value ([2]; s.c., 50 mg/kg, day 1) was 9.2. The “negative responses (-f)” value ([2]; s.c., 50 mg/kg, day 1) was 66.8, the “positive responses (F), acquisition” value ([2]; s.c., 50 mg/kg, day 1) was 8.9 and the “intersignal reactions (IR)” value ([2]; s.c., 50 mg/kg, day 2) was 7.1. The “negative responses (-f)” value ([2]; s.c., 50 mg/kg, day 2) was 35.2, the “positive responses (F), acquisition” value ([2]; s.c., 50 mg/kg, day 2) was 24.5 and the “intersignal reactions (IR)” value ([2]; s.c., 50 mg/kg, day 3) was 4.2. The “negative responses (-f)” value ([2]; s.c., 50 mg/kg, day 3) was 51.5, the “positive responses (F), acquisition” value ([2]; s.c., 50 mg/kg, day 3) was 20.8 and the “intersignal reactions (IR)” value ([2]; s.c., 50 mg/kg, day 4) was 3.3. For the same molecule, the “negative responses (-f)” value ([2]; s.c., 50 mg/kg, day 4) was 61.8, the “positive responses (F), acquisition” value ([2]; s.c., 50 mg/kg, day 4) was 14.6 and the “intersignal reactions (IR)” value ([2]; s.c., 50 mg/kg, day 5) was 2.6. The “negative responses (-f)” value ([2]; s.c., 50 mg/kg, day 5) was 72.8, the “positive responses (F), acquisition” value ([2]; s.c., 50 mg/kg, day 5) was 16.2 and the LD50 at 48 h ([4]; iv) was 51 mg/kg. For the same molecule, the LD50 at 48 h ([4]; po, starved 16 h) was 290 mg/kg, the LD50 at 48 h ([4]; sc) was 280 mg/kg and the ED50 (writhing; po) was 70 mg/kg. It also gave an ED50 (writhing; sc) of 56 mg/kg.
